# Values of other authors, collected in publication PMC7123690 (HCV: The Journey from Discovery to a Cure, 2018).
# Like-named read-outs stand apart in the source and are kept apart here.
# Columns and labels:
# [1] = not given; remark: listed apart in the source
# HCV GT-1 = HCV GT-1 patients
# CYP 2C9 = conditions: recombinant CYP 2C9
# isolated rabbit hearts = conditions: for effects on HR and SNRT: 60 min perfusion
# [2] = test system: individual recombinant CYP enzymes
# [3] = rat
# [4] = test system: GT-1 and GT-4 replication; conditions: GT-1 and GT-4 replicons
# [5] = dog
# [6] = HLM
# CYP 2D6 = conditions: recombinant CYP 2D6
# HCV NS3/4A GT-1a enzyme = conditions: read-out: IC50 GT-1a enzyme
# HCV GT-1b replicon = conditions: read-out: EC50 GT-1b replicon
# CYP 2C19 = conditions: recombinant CYP 2C19
# CYP 1A2 = conditions: recombinant CYP 1A2
# [7] = rat, dog, and cynomolgus monkey plasma
# [8] = RLM
# [9] = cynomolgus monkey LMs
# [10] = P-gp knockout mice
# [11] = not given; remark: listed apart in the source
# [12] = dog LM
# HCV = conditions: combined with IFN-α, ribavirin (52), 2 and 3
# GT-1 HCV = conditions: 120 mg dose, 12-h post-dose, GT-1 HCV patients
# [13] = test system: cardiac ion channel and receptor screens
# [14] = test system: canine parainfluenza virus
# [15] = not given; remark: listed apart in the source
# [16] = dog; remark: listed apart in the source
# [17] = test system: bovine viral diarrhea virus
# [18] = anesthetized rabbits
# [19] = not given; remark: listed apart in the source
# [20] = 60-min perfusion protocol, 10 μM, similar to vehicle control
smiles,measurement,setting,value
"C=C[C@@H]1C[C@]1(NC(=O)[C@@H]1C[C@@H](Oc2ncc(OC)c3ccc(Cl)cc23)CN1C(=O)[C@@H](NC(=O)OC(C)(C)C)C(C)(C)C)C(=O)NS(=O)(=O)C1CC1 [Compound 1, Asunaprevir]",permeability in PAMPA,pH = 5.5,> 47.3 ×10⁻⁶ cm/s
same,permeability in PAMPA,pH = 7.4,> 49.2 ×10⁻⁶ cm/s
same,adverse events (AEs),"[1]; NHVs, single doses 10-1,200 mg oral suspension",generally mild to moderate and comparable to the placebo controls
same,cardiac safety analysis,[1]; short duration SAD study,no evidence of an increased risk of adverse cardiac events
same,mean plasma HCV RNA decline,HCV GT-1; single 50 mg dose,0.64 log10 IU/mL
same,mean plasma HCV RNA decline,HCV GT-1; single 200 mg dose,2.26 log10 IU/mL
same,mean plasma HCV RNA decline,HCV GT-1; single 600 mg dose,2.87 log10 IU/mL
same,IC50,CYP 2C9,> 40 µM
same,maximal increase in SNRT,isolated rabbit hearts; [20],14%
same,maximal reduction of heart rate,isolated rabbit hearts; [20],10%
same,% HR change,isolated rabbit hearts; perfusion concentration 10 μM,−4%
same,% SNRT change,isolated rabbit hearts; perfusion concentration 10 μM,5%
same,metabolic turnover by recombinant CYP enzymes,[2],significant metabolic turnover only by CYP 3A4
same,direct excretion into the bile,[3],9 % of the dose
same,liver level 24-h post-dose,[3]; oral,15.2 µM
same,EC50,[4],< 0.005 µM
same,direct excretion into the bile,[5],22 % of the dose
same,turnover in LMs,[6],5.8 ± 1.8
same,IC50,CYP 2D6,> 40 µM
same,IC50,HCV NS3/4A GT-1a enzyme,0.001 µM
same,EC50,HCV GT-1b replicon,0.006 µM
same,IC50,CYP 2C19,> 40 µM
same,IC50,"CYP 3A4; CYP 3A4, substrate probe 7-benzyloxy-trifluoromethylcoumarin (BFC)",29 µM
same,IC50,"CYP 3A4; CYP 3A4, substrate probe benzyloxyresorufin (BZR)",8 µM
same,IC50,"CYP 3A4; CYP 3A4, substrate probe midazolam",27 µM
same,IC50,CYP 1A2,> 40 µM
same,plasma protein binding,[7],97.2–98.8%
same,turnover in LMs,[8],4.9 pmol/min/mg
same,turnover in LMs,[9],50 ± 22 pmol/min/mg
same,oral bioavailability,[10],> 100%
same,plasma protein binding,[11]; human plasma,98.8%
same,turnover in LMs,[12],4.7 pmol/min/mg
same,activity in combination studies,HCV,additive or synergistic activity
C=C[C@@H]1C[C@]1(NC(=O)[C@@H]1C[C@@H](Oc2nccc3cc(OC)ccc23)CN1C(=O)[C@@H](NC(=O)OC(C)(C)C)C(C)(C)C)C(=O)NS(=O)(=O)C1CC1 [Compound 30],decline in HR,"isolated rabbit hearts; 3 μM, ~12 min perfusion",−15 bpm
same,decline in HR,"isolated rabbit hearts; 10 μM, ~12 min perfusion",−23 bpm
same,effects on atrioventricular conduction time or QRS interval,isolated rabbit hearts; 0.3-10 μM,no effects
same,increase in SNRT,"isolated rabbit hearts; 3 and 10 μM, ~12 min perfusion",≥ 425 ms
same,effects on HR and SNRT,isolated rabbit hearts; 0.1 μM,absent
same,effects on HR and SNRT,isolated rabbit hearts; 0.3 μM,attenuated
same,effects on HR and SNRT,isolated rabbit hearts; 1 μM,effects on HR and SNRT were observed
same,% HR change,isolated rabbit hearts; perfusion concentration 10 μM,−25%
same,oral bioavailability,[3],18%
same,plasma t 1/2,[3],4.4 h
same,plasma level 24-h post-dose,[3]; oral 20 mpk,8 nM
same,mean decline in viral load,GT-1 HCV,1.8 log10 IU/mL
same,oral bioavailability,"[5]; PO, 1 mpk",23%
same,outcome of cardiac ion channel and receptor screens,[13],failed to identify a biochemical target
same,activity in cell culture replication assay,[14],inactive
same,EC50,HCV GT-1b replicon,0.012 µM
same,observed cardiovascular effects,"[15]; conscious telemetrized dogs, two 15 mpk doses",a reduction in heart rate and prolongation of the PR interval
same,plasma exposure at which CV effects occurred,[15]; estimated from non-telemeterized animals,approximately 12 μM
same,affinity for plasma proteins,[16],98.2%
same,activity in cell culture replication assay,[17],inactive
same,decline in HR,"[18]; IV 1, 3 and 10 mpk each infused over 5 min",32 bpm
same,reduction in blood pressure from baseline,"[18]; not drug related, also seen in vehicle controls",14–23 mmHg
same,activity in cell culture replication assay,HIV-1,inactive
same,affinity for plasma proteins,[11]; human,99.1%
same,terminal t 1/2,"[19]; NHVs, single oral doses 10-120 mg",4 to 8 h
same,effects on cardiac function (electrocardiographic changes),"[19]; one NHV and one HCV-infected patient, 120 mg dose","transient mild bradycardia, PR interval prolongation, and junctional rhythm disturbances"
